The conditions of data set [1]: unlabelled mutant; cited from earlier work. The source says:
We also studied a double mutant (F19S/L34P) of Aβ42 (hereon referred to as 'mutant peptide'), which was discovered through a GFP-based screen for mutations that reduce the aggregation p ...

The subject of data set [2] is NGF differentiated PC12 cells. Kind of data set: Blocking the binding of Aβ42 to the surface of live PC12 cells (flow cytometry). The format is cell-based, rat. The conditions noted are these: cells pre-treated with the reagent, then TMR-labelled Aβ42 1.5 μM for 1-2 hours, trypsin 10 μg/mL 15 min then SBTI, Figure 6A. The procedure:
NGF differentiated PC12 cells treated with Aβ (1.5 μM) were washed once with cold D-PBS, followed by mechanical detachment with D-PBS. Collected cells were centrifuged (200 × g for 1 minute) and resuspended in cold flow buffer containing 5 mM EDTA and 1% BSA (Fisher Scientific, Nepean, ON) in D-PBS. Samples were immediately analyzed with a FACS Calibur flow cytometer (Becton Dickinson, Mississauga, ON). TMR-labelled samples were detected with 585/42 filter collecting 5 × 10^4 events per sample using 100–300 events/s flow rate. Cell viability was assessed with 25 μg/mL 7-Aminoactinomycin D (7-AAD) treatment for 5 minutes and detected with a long pass 650 nm filter. Data collection and analysis were performed using Cell Quest version 3.3 and figures were created using WinMDI version 2.8 software.
Various treatments to block or remove lipid, carbohydrate, or protein components from the surface of live PC12 cells were performed and their effects on Aβ binding was examined. NGF differentiated PC12 cells were treated with 100 ng/mL FITC labelled annexin V (to block negatively charged phospholipids) or 10 μg/mL FITC labelled cholera toxin subunit B (to block GM1 ganglioside) for 20 minutes before addition of Aβ42 (final concentration 1.5 μM) for two hours. […] After Aβ42 addition, treated cells and untreated control cells were analyzed using flow cytometry.
In general terms: Flow cytometry measures light scatter and fluorescence of single cells or particles in a stream.

As to “DAEFRHDSGYEVHHQKLVSFAEDVGSNKGAIIGPMVGGVVIA [double mutant (F19S/L34P) of Aβ42, double mutant (F19S/L34P) of Aβ42 with reduced aggregation propensity, unlabelled]”, in data set [1], the “aggregation state of the mutant” value was “soluble unstructured monomeric peptide”.

B1: trypsin: protease (9590 units/mg) used to remove cell surface proteins from PC12 cells (protein, UniProt P00760 24-246, looked up)
Serine protease 1: IVGGYTCGANTVPYQVSLNSGYHFCGGSLINSQWVVSAAHCYKSGIQVRLGEDNINVVEGNEQFISASKSIVHPSYNSNTLNNDIMLIKLKSAASLNSRVASISLPTSCASAGTQCLISGWGNTKSSGTSYPDVLKCLKAPILSDSSCKSAYPGQITSNMFCAGYLEGGKDSCQGDSGGPVVCSGKLQGIVSWGSGCAQKNKPGVYTKVCNYVSWIKQTIASN
With B1, the “effect of cell surface treatment on Aβ42 binding” value in data set [2] is on record as “significantly decreased”.
